Assay results from patent publication US12478601B2, “Dietary product devoid of at least two non essential amino acids” (CANCER RESEARCH TECHNOLOGY LIMITED, priority 2016, dated 2025).
“Also recorded” adds a separate entry of the source. Structures can show the parent of a compound that is named as a salt. Where two headings read alike, the source gives them in different places.

Key:
[1] = test system: HCT116, DLD1 and SW480; assay: Synergy score screen: chemotherapeutic agents in low serine, glycine, cysteine medium, cell counts
Protocol: Human cell lines HCT116, DLD1 and SW480 were seeded into 96-well plates either in complete medium containing serine, glycine and cysteine at 100 uM, with all other amino acids present, or low serine, glycine, cysteine (17-23 uM) medium with all other amino acids present. After 6 hours the stated chemotherapeutic agents were added (at doses of 0.01, 0.1 and 1 uM) to the wells and cells were incubated for a further 48 hours. After this time cells were formalin fixed and stained with a fluorescent nuclear stain for cell counting on an automated (Operetta) plate reader.

[2] = test system: intestinal tumour organoids derived from a VillincreER; APCfl/fl mouse; assay: Intestinal tumour organoid growth (diameter) +/− serine and glycine, +/− drug; assay type: cell-based; conditions: two days
Protocol: ADF=Advanced DMEM F/12, with 2 mM glutamine, 1% of penicillin/streptomycin solution, 0.1% of AlbuMAX I BSA, 10 mM HEPES (all Gibco/Life Technologies). Adenomas were removed from the small intestine of mice and cut into smaller pieces and washed 5 times with ice cold PBS. Pieces were incubated in 5 mM EDTA for 10 min at 4° C. on a roller. Crypts were washed 2 times with ice cold PBS to remove EDTA and incubated in 10× trypsin for 30 min at 37° C. The crypt-enriched supernatant was collected and washed approximately 5 times with 5 ml ADF through mechanical pipetting. Crypts were pelleted via centrifugation at 1,200 rpm for 5 min. Crypts were re-suspended in growth factor reduced matrigel (BD Biosciences) and 20 μl was plated per well in a 12-well plate. Matrigel was allowed to solidify for 30 min in a 37° C. incubator before appropriate ADF was added supplemented with 0.05 μg/ml EGF and 0.1 μg/ml noggin (Total volume per well 1 ml). Crypts were split by harvesting in ice cold PBS and spun down at 600 rpm for 3 min. Supernatant was aspirated and the pellet dissociated with 100 μl ice cold PBS using mechanical pipetting. 5 ml of PBS was added to tube and spun own at 600 rpm for 3 min, repeated until supernatant was clear of debris. The final crypt pellet was re-suspended with growth factor reduced matrigel and plated as before. For serine/glycine starvation, amino acid free Advanced DMEM F/12 (Gibco/Life Technologies) was used to construct assay medium for organoids with or without serine and glycine, containing all other amino acids. […]
Organoids were seeded in the stated media with or without metformin/daunorubicin (both from Sigma) and allowed to grow for two days. Images for size quantification (performed using ImageJ software) were taken using a light microscope then organoids were fixed in 4% paraformaldehyde. ROS damage was assessed by immunostaining organoids with Anti-malondialdehyde (MDA) (Abcam, ab6463), with Alexa Fluor 594 secondary antibody (Thermo Fisher Scientific). […]

[3] = test system: VillincreER; APCfl/fl organoids; assay: Organoid malondialdehyde (MDA) immunostaining (ROS damage); assay type: cell-based, mouse
Protocol: Organoids were seeded in the stated media with or without metformin/daunorubicin (both from Sigma) and allowed to grow for two days. Images for size quantification (performed using ImageJ software) were taken using a light microscope then organoids were fixed in 4% paraformaldehyde. ROS damage was assessed by immunostaining organoids with Anti-malondialdehyde (MDA) (Abcam, ab6463), with Alexa Fluor 594 secondary antibody (Thermo Fisher Scientific). Images were captured on an Olympus FV1000 inverted laser scanning confocal microscope and MDA staining was quantified using ImageJ software.

[4] = test system: DLD1 and SW480 cells; assay: Metformin in vitro assay in APC-truncated colorectal cell lines, cell number; assay type: cell-based, Human; conditions: three days
Protocol: DLD1 and SW480 cells were seeded into 24-well plates and allowed to adhere overnight. Cells were washed with PBS and received either assay medium with or without serine and glycine, with or without metformin at the stated doses and allowed to grow for three days. Representative wells were photographed using a light microscope and counted using a Casy TT cell counter (FIG. 19, panel d). For the dose-response experiment (FIG. 23, panel e) cells were seeded in the same way, either in assay medium without serine and glycine, or in assay medium with low serine and glycine (10 uM), triplicate wells were counted after three days.

[5] = test system: intestinal tumours (APCMin/+)
Excerpt: (§1) On normal chow, dietary amino acids are derived from whole proteins contained in the raw ingredients (wheat, wheatfeed, barley, de-hulled extracted toasted soya, maize and fish meal), with a small amount of purified lysine added as a supplement. […] “Diet 2-Control” contained all essential amino acids plus serine, glycine, glutamine, arginine, cystine, tyrosine, alanine, proline, glutamate and asparagine; “Diet 2-No Ser, No Gly/Diet 2-SG-free” was the same as Diet 2-Control, but without serine and glycine, with the other amino acid levels increased proportionally to achieve the same total amino acid content. “Diet 2” formulations were used for the Eμ-Myc-Tigar^−/− cohort (FIG. 19, panel f). All other cohorts received the previously published “Diet 1” formulations.
Mus Musculus cohorts were housed in a barriered facility proactive in environmental enrichment. The Eμ-Myc11, ApcMin/+, Lgr5creER; Apcf1/f1 and Pdx1cre; KrasG12D; Trp53f1/+ or Trp53R172H/+ mice/models have been previously described. Mixed male and female populations were used for each genotype. […] Eμ-Myc, and ApcMin/+ mice were at least 20 generations C57BL/6J. Eμ-Myc; Tigarf1/f1 mice were at least 50% C57BL/6J. Mice were put on the appropriate diet at the following times: Eμ-Myc pure bred 60 days post-natal, Eμ-Myc; Tigarf1/f1 55 days post-natal, ApcMin/+80 days post-natal, Lgr5creER; Apcf1/f1 7 days post-induction, Pdx1cre; KrasG12D; Trp53f1/+ or Trp53R172H/+60 days post-natal. […] For the metformin experiment, ApcMin/+ mice were given 200 mg/kg/day in their drinking water, starting 4 days after the diet change. All mice were taken to clinical end-point. Intestines from ApcMin/+ mice were fixed in methacarn (4:2:1 ratio of methanol, chloroform, acetic acid) to facilitate scoring of tumour number and area (width×length).
Samples were prepared in cold (−20° C.) lysis solvent (LS) consisting of methanol, acetonitrile, and H2O (50:30:20). […] Tissue samples were snap frozen and stored at −80° C. Prior to lysis, frozen samples were weighed then homogenized in 1 ml cold LS using a Precellys homogeniser (Bertin Technologies). Lysates were cleared of protein by centrifugation and lysate concentrations were normalized post-homogenisation with LS based on weight. Extracts were analysed on an LCMS platform consisting of an Accela 600 LC system and an Exactive mass spectrometer (Thermo Scientific). A SeQuant ZIC-pHILIC column (2.1 mm×150 mm, 5 μm) (Merck) was used to separate the metabolites with the mobile phase mixed by A=Ammonium carbonate 20 mM (adjusted to pH 9.4) and B=Acetonitrile. A gradient program starting at 20% of A and after 2 mins linearly increasing to 80% at 17 min was used followed by washing and re-equilibration steps. The total run time of the method was 25 min. The LC stream was desolvated and ionised in the HESI probe. The Exactive mass spectrometer was operated in full scan mode over a mass range of 75-1,000 m/z at a resolution of 50,000 with polarity switching. The raw data was analysed by LCquan (Thermo Scientific) and MZMine 2.10 for metabolite identification and quantification.
Mus Musculus cohorts were housed in a barrier facility proactive in environmental enrichment. […] Mixed male and female populations were used for each genotype.

[6] = test system: Colorectal and breast cancer cell lines; assay: Rescue from cysteine starvation by homocysteine supplementation; assay type: cell-based; conditions: homocysteine 0.2 mM & 0.8 mM, three days
Protocol: FIG. 39. […] Colorectal and breast cancer cell lines were grown in 24-well plates. Basal medium was formulated (based on RPMI medium) lacking cysteine but containing all 19 other essential and non-essential amino acids. This basal medium was supplemented with the stated components; cysteine 0.4 mM (+Cys), homocysteine 0.2 mM & 0.8 mM (HC) and grown for three days. Data are average of three wells. Error bars=STDEV.
Cells (4×10^4-1×10^5) were seeded in complete RPMI or DMEM medium in 24-well plates and allowed to adhere overnight. Cells were then washed with PBS and received assay medium supplemented with the stated amino acids/metabolites/drugs. Assay medium was formulated based on RPMI-1640 medium but lacking amino acids, which were added individually depending on the assay. Assay medium was also supplemented with additional vitamin B6 (20 uM), a co-factor for cysteine synthesis. Cells were counted (using Casy TT cell counter, Innovatis, Roche Applied Science) at the stated time-points, using a “time=0” plate to calculate relative cell number from time of medium change.

[7] = test system: lymphoma (based on Eμ-Myc expression)
Excerpt: as §1
Mus Musculus cohorts were housed in a barriered facility proactive in environmental enrichment. The Eμ-Myc11, ApcMin/+, Lgr5creER; Apcf1/f1 and Pdx1cre; KrasG12D; Trp53f1/+ or Trp53R172H/+ mice/models have been previously described. Mixed male and female populations were used for each genotype. […] Eμ-Myc, and ApcMin/+ mice were at least 20 generations C57BL/6J. Eμ-Myc; Tigarf1/f1 mice were at least 50% C57BL/6J. Mice were put on the appropriate diet at the following times: Eμ-Myc pure bred 60 days post-natal, Eμ-Myc; Tigarf1/f1 55 days post-natal, ApcMin/+80 days post-natal, Lgr5creER; Apcf1/f1 7 days post-induction, Pdx1cre; KrasG12D; Trp53f1/+ or Trp53R172H/+60 days post-natal. […] For the metformin experiment, ApcMin/+ mice were given 200 mg/kg/day in their drinking water, starting 4 days after the diet change. All mice were taken to clinical end-point. […]
Samples were prepared in cold (−20° C.) lysis solvent (LS) consisting of methanol, acetonitrile, and H2O (50:30:20). […] Extracts were analysed on an LCMS platform consisting of an Accela 600 LC system and an Exactive mass spectrometer (Thermo Scientific). […] The raw data was analysed by LCquan (Thermo Scientific) and MZMine 2.10 for metabolite identification and quantification. […]

[8] = average synergy score for three colorectal cells lines, drug at 0.01, 0.1 and 1 uM for 48 hours, low serine, glycine, cysteine (17-23 uM) vs complete medium (100 uM)

## CN(C)C/C=C/C(=O)Nc1cc2c(Nc3ccc(F)c(Cl)c3)ncnc2cc1O[C@H]1CCOC1 [Afatinib]
[1]; [8]
  SYNERGY SCORE: 1.18

## CC(C)(C#N)c1cc(Cn2cncn2)cc(C(C)(C)C#N)c1 [Anastrozole]
[1]
  SYNERGY SCORE: 1.43

## COc1cc(Nc2c(C#N)cnc3cc(OCCCN4CCN(C)CC4)c(OC)cc23)c(Cl)cc1Cl [Bosutinib]
[1]; [8]
  SYNERGY SCORE: 1.95

## COc1cc2nccc(Oc3ccc(NC(=O)C4(C(=O)Nc5ccc(F)cc5)CC4)cc3)c2cc1OC [Cabozantinib]
[1]; [8]
  SYNERGY SCORE: 4.51

## CC(C)C[C@H](NC(=O)[C@H](CCc1ccccc1)NC(=O)CN1CCOCC1)C(=O)N[C@@H](Cc1ccccc1)C(=O)N[C@@H](CC(C)C)C(=O)[C@@]1(C)CO1 [Carfilzomib]
[1]; [8]
  SYNERGY SCORE: 1.65

## Cc1cc(Nc2ncc(Cl)c(Nc3ccccc3S(=O)(=O)C(C)C)n2)c(OC(C)C)cc1C1CCNCC1 [Ceritinib]
[1]; [8]
  SYNERGY SCORE: 2.56

## N.N.[Cl][Pt][Cl] [Cisplatin]
[1]; [8]
  SYNERGY SCORE: 1.79

## COc1cccc2c1C(=O)c1c(O)c3c(c(O)c1C2=O)C[C@@](O)(C(C)=O)C[C@@H]3O[C@H]1C[C@H](N)[C@H](O)[C@H](C)O1 [Daunorubicin]
[2]; with serine & glycine starvation
  tumour organoid growth: complements serine and glycine starvation; also recorded: decrease tumour organoid growth
[3]; with serine & glycine starvation, two days
  reactive oxygen species levels in tumour-organoids: increase reactive oxygen species levels

## COc1cccc2c1C(=O)c1c(O)c3c(c(O)c1C2=O)C[C@@](O)(C(=O)CO)C[C@@H]3O[C@H]1C[C@H](N)[C@H](O)[C@H](C)O1 [Doxorubicin hydrochloride]
[1]; [8]
  SYNERGY SCORE: 1.76

## COc1cccc2c1C(=O)c1c(O)c3c(c(O)c1C2=O)C[C@@](O)(C(=O)CO)C[C@@H]3O[C@H]1C[C@H](N)[C@@H](O)[C@H](C)O1 [Epirubicin hydrochloride]
[1]; [8]
  SYNERGY SCORE: 1.40

## CO[C@H]1C[C@@H]2CC[C@@H](C)[C@@](O)(O2)C(=O)C(=O)N2CCCC[C@H]2C(=O)O[C@H]([C@H](C)C[C@@H]2CC[C@@H](OCCO)[C@H](OC)C2)CC(=O)[C@H](C)/C=C(\C)[C@@H](O)[C@@H](OC)C(=O)[C@H](C)C[C@H](C)/C=C/C=C/C=C/1C [Everolimus]
[1]; [8]
  SYNERGY SCORE: 3.33

## C=C1C[C@@H]2[C@H](CC[C@]3(C)C(=O)CC[C@@H]23)[C@@]2(C)C=CC(=O)C=C12 [Exemestane]
[1]; [8]
  SYNERGY SCORE: 2.14

## Nc1nc(F)nc2c1ncn2[C@@H]1O[C@H](COP(=O)(O)O)[C@@H](O)[C@@H]1O [Fludarabine phosphate]
[1]
  SYNERGY SCORE: 2.76

## CC[C@H](Nc1ncnc2[nH]cnc12)c1nc2cccc(F)c2c(=O)n1-c1ccccc1 [Idelalisib]
[1]; [8]
  SYNERGY SCORE: 4.05

## Nc1cccc2c1CN(C1CCC(=O)NC1=O)C2=O (stereo not drawn) [Lenalidomide]
[1]; [8]
  SYNERGY SCORE: 1.94

## CN(C)C(=N)N=C(N)N [Metformin]
[2]; low dose metformin
  organoid growth, interaction with serine and glycine starvation: antagonizes serine and glycine starvation; also recorded: did not have a synergistic effect
[2]; metformin 1000 uM
  organoid growth, interaction with serine starvation: synergise with serine starvation
[3]; high dose metformin
  reactive oxygen species (ROS) levels: increase with high dose metformin
[3]; low dose metformin
  reactive oxygen species (ROS) levels: decrease with low dose metformin
[4]; metformin at 20 µM
  cell number: trend for increased cell number
[4]; metformin at concentrations found in vivo
  synergistic effect with serine/glycine starvation: did not have a synergistic effect
[5]; 200 mg/kg/day in drinking water, LCMS
  metformin levels in serum and tissue: relatively low; also recorded: too low to potentiate the anti-cancer effect
[5]; metformin 200 mg/kg/day
  average tumour area: without a substantial change in average tumour area
  impact on systemic metabolism (serum glucose and lactate): minimal impact on systemic metabolism; also recorded: little impact on systemic metabolism
[1]; [8]
  SYNERGY SCORE: 7.53

## O=C(c1cc(Cc2n[nH]c(=O)c3ccccc23)ccc1F)N1CCN(C(=O)C2CC2)CC1 [Olaparib]
[1]; [8]
  SYNERGY SCORE: 1.46

## Cc1ccc(C(=O)Nc2ccc(CN3CCN(C)CC3)c(C(F)(F)F)c2)cc1C#Cc1cnc2cccnn12 [Ponatinib]
[1]
  SYNERGY SCORE: 1.00

## CNC(=O)c1cc(Oc2ccc(NC(=O)Nc3ccc(Cl)c(C(F)(F)F)c3)c(F)c2)ccn1 [Regorafenib]
[1]; [8]
  SYNERGY SCORE: 2.29

## C/C=C1\NC(=O)[C@H]2CSSCC/C=C/[C@H](CC(=O)N[C@H](C(C)C)C(=O)N2)OC(=O)[C@H](C(C)C)NC1=O [Romidepsin]
[1]
  SYNERGY SCORE: 2.03

## CNC(=O)c1cc(Oc2ccc(NC(=O)Nc3ccc(Cl)c(C(F)(F)F)c3)cc2)ccn1 [Sorafenib]
[1]; [8]
  SYNERGY SCORE: 2.26

## CO[C@H]1C[C@@H]2CC[C@@H](C)[C@@](O)(O2)C(=O)C(=O)N2CCCC[C@H]2C(=O)O[C@H]([C@H](C)C[C@@H]2CC[C@@H](OC(=O)C(C)(CO)CO)[C@H](OC)C2)CC(=O)[C@H](C)/C=C(\C)[C@@H](O)[C@@H](OC)C(=O)[C@H](C)C[C@H](C)/C=C/C=C/C=C/1C [Temsirolimus]
[1]; [8]
  SYNERGY SCORE: 3.90

## CS(=O)(=O)c1ccc(C(=O)Nc2ccc(Cl)c(-c3ccccn3)c2)c(Cl)c1 [Vismodegib]
[1]
  SYNERGY SCORE: 1.53

## O=C(CCCCCCC(=O)Nc1ccccc1)NO [Vorinostat]
[1]; [8]
  SYNERGY SCORE: 4.94

## N[C@@H](CCS)C(=O)O [homocysteine]
[6]
  rescue from cysteine starvation: rescued from cysteine starvation; also recorded: significant rescue from cysteine starvation

## [H]/N=C(/N)N/C(=N/[H])NCCc1ccccc1 [phenformin]
[7]; 100 mg/kg/day by gavage, mice on normal diet
  tolerability: tolerated
[7]; 100 mg/kg/day with serine and glycine deficient diet
  mice already recruited that did not succumb to toxicity: 7/14
[7]; 100 mg/kg/day, not statistically significant
  survival, diet with phenformin compared to serine and glycine free diet alone: trend for improved survival

## Arsenic trioxide
[1]
  SYNERGY SCORE: 2.52
